Results published in patent publication US20030215462A1, “Use of UGT inhibitors to increase bioavailability” (priority 2001, published 2003).

Legend:
[1] = tested on: UGT enzymes of pooled human jejunum microsomes; test: Inhibition of raloxifene glucuronidation (G1, G2) in pooled human jejunum microsomes; type: biochemical; conditions: jejunum HJ61; inhibitor 50 μM
Method: Compounds were eluted using a binary solvent gradient system. […] Solvent B was methanol. […] Detection was at 280 nm.
Standardized incubations utilized […] microsomal protein, 1 mM UDPGA and a 30 min incubation time.

[2] = tested on: T1, UGT enzymes of human liver microsomes; test: Inhibition of estradiol (E2) glucuronidation in human liver microsomes; type: biochemical; conditions: liver 032101; E2 50 μM; inhibitor 50 μM
T1 construct: residual metabolism (% of control), E2-3-β-D-glucuronide; other: liver 032101; residual metabolism (% of control), E2-3-β-D-glucuronide
Excerpt: (§1) Compounds were eluted using a binary solvent gradient system where solvent A was dilute phosphoric acid (pH 3) and solvent B was 80:20 acetonitrile-methanol. […] Detection was at 280 nm.

[3] = tested on: UGT enzymes of human liver microsomes; test: as above; type: biochemical; conditions: liver 062101; E2 50 μM; inhibitor 50 μM
Excerpt: as §1

[4] = tested on: T2, UGT enzymes of human liver microsomes; test: as above; type: biochemical; conditions: liver 032101; E2 50 μM; inhibitor 50 μM
T2 construct: residual metabolism (% of control), E2-17-β-D-glucuronide; other: liver 032101; residual metabolism (% of control), E2-17-β-D-glucuronide
Excerpt: as §1

[5] = tested on: T3, UGT enzymes of human liver microsomes; test: Inhibition of 2ME2 glucuronidation (MG1, MG2) in human liver microsomes; type: biochemical; conditions: liver 062101, 2ME2 50 μM
T3 construct: other: liver 062101
Excerpt: as §1

[6] = target: T4, UGT1A1 (Homo sapiens, UniProt P22309); test: Inhibition of raloxifene glucuronidation by recombinant UGT1A1 Supersomes; conditions: for Inhibition of raloxifene glucuronidation, G1, UGT1A1 / Inhibition of raloxifene glucuronidation, G2, UGT1A1: raloxifene 50 μM, 250 μg/ml Supersomes, 1 mM UDPGA, 15 min; for % of control metabolism, raloxifene G1 / % of control metabolism, raloxifene G2: UGT1A1
T4 sequence (P22309 26-533): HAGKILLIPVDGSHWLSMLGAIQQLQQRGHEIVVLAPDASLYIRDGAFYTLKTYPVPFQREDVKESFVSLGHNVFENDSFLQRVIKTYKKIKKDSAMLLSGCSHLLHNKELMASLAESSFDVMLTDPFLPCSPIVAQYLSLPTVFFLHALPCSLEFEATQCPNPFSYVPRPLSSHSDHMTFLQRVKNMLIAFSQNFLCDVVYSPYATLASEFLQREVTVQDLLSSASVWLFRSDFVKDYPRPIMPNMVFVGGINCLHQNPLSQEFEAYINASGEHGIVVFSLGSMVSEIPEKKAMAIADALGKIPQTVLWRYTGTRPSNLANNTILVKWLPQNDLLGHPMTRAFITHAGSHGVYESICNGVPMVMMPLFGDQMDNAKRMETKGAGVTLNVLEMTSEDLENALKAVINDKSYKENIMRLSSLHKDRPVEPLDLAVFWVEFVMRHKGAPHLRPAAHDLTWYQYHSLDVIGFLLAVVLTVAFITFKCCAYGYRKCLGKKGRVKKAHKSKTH
Method: Compounds were eluted using a binary solvent gradient system. Solvent A was water brought to pH 8 with NH4OH. Solvent B was methanol. Solvent flow rate was 1 ml/min and the column temperature was maintained at 50° C. Detection was at 280 nm. […] The system was then returned to the initial conditions and equilibrated for 3 min.

[7] = tested on: T5, UGT enzymes of human liver microsomes; test: Kinetic and Ki studies of inhibitors of 7-HFC glucuronidation in human liver microsomes; type: biochemical; conditions: 7-HFC 20-500 μM
T5 construct: percentage of control metabolism, 7-HFC glucuronidation; percentage of control metabolism, 7-HFC glucuronidation

[8] = target: T6, UGT1A9 (Homo sapiens, UniProt O60656); test: Inhibition of raloxifene glucuronidation by recombinant UGT1A9 Supersomes; conditions: for % of control metabolism, raloxifene G1 / % of control metabolism, raloxifene G2: UGT1A9; for Inhibition of raloxifene glucuronidation, UGT1A9, first line per inhibitor (G1): first line (G1, metabolite not given); for Inhibition of raloxifene glucuronidation, UGT1A9, first line per inhibitor (G1) / Inhibition of raloxifene glucuronidation, UGT1A9, second line per inhibitor (G2): raloxifene 50 μM, 250 μg/ml Supersomes, 1 mM UDPGA, 15 min; for Inhibition of raloxifene glucuronidation, UGT1A9, second line per inhibitor (G2): second line (G2, metabolite not given)
T6 sequence (O60656 26-530): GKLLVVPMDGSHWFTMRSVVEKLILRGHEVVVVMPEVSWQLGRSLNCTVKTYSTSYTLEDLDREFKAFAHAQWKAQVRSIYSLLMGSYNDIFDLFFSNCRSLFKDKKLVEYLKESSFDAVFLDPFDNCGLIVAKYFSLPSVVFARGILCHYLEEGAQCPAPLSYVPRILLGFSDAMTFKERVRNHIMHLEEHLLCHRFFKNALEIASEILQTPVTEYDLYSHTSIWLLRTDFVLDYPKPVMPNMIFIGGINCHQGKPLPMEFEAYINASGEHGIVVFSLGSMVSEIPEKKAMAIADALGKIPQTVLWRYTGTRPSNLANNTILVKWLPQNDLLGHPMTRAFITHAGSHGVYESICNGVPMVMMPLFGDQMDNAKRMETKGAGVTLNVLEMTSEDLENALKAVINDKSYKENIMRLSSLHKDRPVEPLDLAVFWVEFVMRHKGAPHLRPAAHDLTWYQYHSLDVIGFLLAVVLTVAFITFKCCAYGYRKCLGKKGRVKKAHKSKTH

[9] = tested on: T5, UGT enzymes of human liver microsomes; test: Inhibition of 7-HFC glucuronidation in human liver microsomes; type: biochemical; conditions: for % of control metabolism (SD, n = 3), 7-HFC glucuronidation: 7-HFC 50 μM, human liver microsomes 100 μg/ml, 15 min
[10] = tested on: UGT enzymes of pooled human jejunum microsomes; test: Inhibition of estradiol (E2) glucuronidation in pooled human jejunum microsomes; type: biochemical; conditions: jejunum HJ61; E2 50 μM; inhibitor 50 μM
Excerpt: as §1

[11] = tested on: T7, UGT enzymes of human liver microsomes; test: Inhibition of labetalol glucuronidation (LG1, LG2) in human liver microsomes; type: biochemical; conditions: labetalol 50 μM; inhibitor 100 μM
T7 construct: residual metabolism (percentage of control), labetalol LG1; other: labetalol 50 μM; residual metabolism (percentage of control), labetalol LG1; residual metabolism (percentage of control), labetalol LG2; inhi

[12] = inhibitor column headed only "μM" (between 25 μM and 5 μM)

In the case of `O=C(O[C@@H]1Cc2c(O)cc(O)cc2O[C@@H]1c1cc(O)c(O)c(O)c1)c1cc(O)c(O)c(O)c1` [Epigallocatechin gallate], the “% of control metabolism, raloxifene G1” value [1] is reported as 38 (2) %, the “% of control metabolism, raloxifene G2” value [1] is reported as 35 (4) % and the “residual metabolism (% of control), E2-3-β-D-glucuronide” value [2] is reported as 46 (1) %. For the same compound, the “residual metabolism (% of control), E2-3-β-D-glucuronide” value [3] was 45 (2) %, the “residual metabolism (% of control), E2-17-β-D-glucuronide” value [3] was 70 (1) % and the “residual metabolism (% of control), E2-17-β-D-glucuronide” value [4] was 82 (2) %. The “residual metabolism (% of control), 2ME2 MG1” value ([5]; inhibitor 25 μM) was 61 (1) %, the “residual metabolism (% of control), 2ME2 MG2” value ([5]; inhibitor 25 μM) was 79 (0) % and the “residual metabolism (% of control), 2ME2 MG1” value ([5]; inhibitor 50 μM) was 48 (2) %. For the same compound, the “residual metabolism (% of control), 2ME2 MG2” value ([5]; inhibitor 50 μM) was 71 (1) %, the “residual metabolism (% of control), 2ME2 MG1” value ([5]; inhibitor 100 μM) was 29 (1) % and the “residual metabolism (% of control), 2ME2 MG2” value ([5]; inhibitor 100 μM) was 35 (1) %. For the same compound, the “Inhibition of raloxifene glucuronidation, G1, UGT1A1” value (“Inhibition … G1, UGT1A1” for short) ([6]; inhibitor 25 μM) was 44 (1), the “Inhibition … G1, UGT1A1” value ([6]; inhibitor 50 μM) was 21 (0) and the “Inhibition … G1, UGT1A1” value [6, 12] was 70 (1). For the same compound, the “Inhibition of raloxifene glucuronidation, G2, UGT1A1” value (from here on “Inhibition … G2, UGT1A1”) ([6]; inhibitor 25 μM) was 45 (1), the “Inhibition … G2, UGT1A1” value ([6]; inhibitor 50 μM) was 25 (1) and the “Inhibition … G2, UGT1A1” value [6, 12] was 74 (2). The “% of control metabolism, raloxifene G1” value ([6]; inhibitor 25 μM) was 44 (1) %, the “% of control metabolism, raloxifene G2” value ([6]; inhibitor 25 μM) was 45 (1) % and the “% of control metabolism, raloxifene G1” value ([6]; inhibitor 50 μM) was 21 (0) %. For the same compound, the “% of control metabolism, raloxifene G2” value ([6]; inhibitor 50 μM) was 25 (1) %, the “Vmax of 7-HFC glucuronidation (fit of the experiment with this inhibitor)” value [7] was 54 ± 3 nmol/min/mg and the Km ([7]; read-out: Km of 7-HFC glucuronidation (fit of the experiment with this inhibitor)) was 75 ± 7 µM. For the same compound, the “% of control metabolism, raloxifene G1” value ([8]; inhibitor 25 μM) was 58 (1) %, the “% of control metabolism, raloxifene G2” value ([8]; inhibitor 25 μM) was 50 (1) % and the “% of control metabolism, raloxifene G1” value ([8]; inhibitor 50 μM) was 33 (4) %. For the same compound, the “% of control metabolism, raloxifene G2” value ([8]; inhibitor 50 μM) was 22 (2) %, the “Inhibition of raloxifene glucuronidation, UGT1A9, first line per inhibitor (G1)” value ([8]; inhibitor 25 μM) was 58 (1) and the “Inhibition of raloxifene glucuronidation, UGT1A9, first line per inhibitor (G1)” value ([8]; inhibitor 50 μM) was 33 (4). The “Inhibition of raloxifene glucuronidation, UGT1A9, second line per inhibitor (G2)” value ([8]; inhibitor 25 μM) was 50 (1), the “Inhibition of raloxifene glucuronidation, UGT1A9, second line per inhibitor (G2)” value ([8]; inhibitor 50 μM) was 22 (2) and the “percentage of control metabolism, 7-HFC glucuronidation” value (from here on “percentage of control metabolism”) ([9]; inhibitor 100 μM) was 67 (1) %. For the same compound, the “% of control metabolism (SD, n = 3), 7-HFC glucuronidation” value ([9]; inhibitor 100 μM) was 67 (1) %, the “percentage of control metabolism” value ([9]; inhibitor 200 μM) was 37 (2) % and the “% of control metabolism (SD, n = 3), 7-HFC glucuronidation” value ([9]; inhibitor 200 μM) was 37 (2) %. The “percentage of control metabolism” value ([9]; inhibitor 500 μM) was 5 (1) %, the “% of control metabolism (SD, n = 3), 7-HFC glucuronidation” value ([9]; inhibitor 500 μM) was 5 (1) % and the “residual metabolism (% of control), E2-3-β-D-glucuronide” value [10] was 32 (0) %. The “residual metabolism (% of control), E2-17-β-D-glucuronide” value [10] was 41 (4) %, the “residual metabolism (percentage of control), labetalol LG1” value [11] was 55 (2) % and the “residual metabolism (percentage of control), labetalol LG2” value [11] was 52 (5) %.
